From US4269831A, “Topical dermatological method of use of an androstenopyrazole” (priority 1979, dated 1981)

Tests used:
[1] = test system: castrated immature male Syrian golden hamsters; experiment: Systemic antiandrogenic and glucocorticoid activity, subcutaneous, with testosterone propionate (Table IV); format: in vivo; conditions: mean, n=8
Experimental: A solution of the compound of Formula I in cottonseed oil was administered subcutaneously at 1 ml./kg. to castrated immature male Syrian golden hamsters having a mean initial body weight of 79 g. for 14 consecutive days concurrently with testosterone propionate. On the day following the last medication the hamsters were killed, the flank organ parameters were determined and the weights of seminal vesicles, adrenals and thymus glands were obtained.

[2] = molecular target: T1, hamster flank organ cytosol receptor (Mesocricetus auratus, UniProt A0A1U7QL32); experiment: Binding competition with 3H-dihydrotestosterone in hamster flank organ cytosol in vitro (Table VI); design: species or system Syrian golden hamsters; conditions: 3H-DHT 2 nM, two hours, no antagonist 13.96
T1 construct: The homogenate was centrifuged (120,000×g for 45 min.) and the cytosol was frozen and stored at -70° C; from tissue; host or cells: flank organ cytosol of castrated male Syrian golden hamsters
T1 sequence (A0A1U7QL32 1-900): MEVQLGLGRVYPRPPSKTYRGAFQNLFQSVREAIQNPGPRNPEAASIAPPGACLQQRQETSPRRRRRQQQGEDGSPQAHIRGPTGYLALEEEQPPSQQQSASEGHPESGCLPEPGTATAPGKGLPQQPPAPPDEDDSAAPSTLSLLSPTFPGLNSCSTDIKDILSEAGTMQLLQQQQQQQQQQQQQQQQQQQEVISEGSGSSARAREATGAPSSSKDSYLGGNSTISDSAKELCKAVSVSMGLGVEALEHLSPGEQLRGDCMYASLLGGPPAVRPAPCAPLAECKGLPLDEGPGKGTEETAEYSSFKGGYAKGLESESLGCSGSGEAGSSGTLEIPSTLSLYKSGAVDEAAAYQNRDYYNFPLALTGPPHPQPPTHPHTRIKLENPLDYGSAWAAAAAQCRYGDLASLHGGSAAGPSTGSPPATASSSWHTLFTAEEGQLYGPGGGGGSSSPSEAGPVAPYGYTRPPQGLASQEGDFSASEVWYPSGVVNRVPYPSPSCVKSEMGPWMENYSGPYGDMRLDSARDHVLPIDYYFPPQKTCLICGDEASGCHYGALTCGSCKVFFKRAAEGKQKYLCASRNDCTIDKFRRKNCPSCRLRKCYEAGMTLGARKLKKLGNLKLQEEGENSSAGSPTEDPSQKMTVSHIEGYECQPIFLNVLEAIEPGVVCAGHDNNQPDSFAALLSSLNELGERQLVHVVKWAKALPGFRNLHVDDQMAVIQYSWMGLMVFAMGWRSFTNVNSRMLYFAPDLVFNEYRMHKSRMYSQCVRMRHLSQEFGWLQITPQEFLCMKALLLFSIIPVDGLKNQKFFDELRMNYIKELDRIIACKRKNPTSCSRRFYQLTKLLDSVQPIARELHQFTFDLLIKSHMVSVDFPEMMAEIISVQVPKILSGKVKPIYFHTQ
Experimental: The flank organs of twelve mature male Syrian golden hamsters each weighing from 120 to 140 g. and having been castrated 16-18 hours earlier were excised, dissected under the microscope to remove the dermis and the muscle layers and homogenized in buffer (1.5 volumes of 50 mM Tris, 0.5 mM mercaptoethanol and 0.1 mM ethylenediamine tetracetate, pH 7.4). The homogenate was centrifuged (120,000×g for 45 min.) and the cytosol was frozen and stored at -70° C. Six of the cytosol samples were thawed at room temperature, pooled and used for evaluation of in vitro binding.

[3] = test system: supracaudal glands of mature male guinea pigs; experiment: Topical study on supracaudal glands of guinea pigs; format: in vivo; conditions: 21 days
Experimental: The supracaudal glands of mature male guinea pigs having a mean initial body weight of 431 g. (8 guinea pigs per group) were medicated topically with a solution of the compound of Formula I (400 micrograms) in ethanol (10 microliters). Guinea pigs treated with ethanol served as controls. After 21 days of treatment the guinea pigs were killed and the areas of the supracaudal glands (pi×long radius×short radius) were measured in situ with calipers. The weights of seminal vesicles, adrenals and thymus glands were also measured.

[4] = test system: adrenalectomized Sprague-Dawley rats; experiment: Systemic glucocorticoid activity in the adrenalectomized rat, oral; format: in vivo; design: Liver glycogen: unit not given here; conditions: five consecutive days; for Liver glycogen: control 1.82±0.03; for Thymus weights: control 638±50
Experimental: A solution of the compound of Formula I in ethanolcottonseed oil (1:9, v/v) was administered orally to adrenalectomized Sprague-Dawley rats having a mean initial body weight of 188 g. (10 rats per group) for five consecutive days. Adrenalectomized rats receiving vehicle alone served as controls. Seven hours after the final medication the rats were killed and the thymus glands were excised and weighed. A portion of the liver was excised, frozen and digested in hot aqueous potassium hydroxide (30%). Liver glycogen was then determined. In this test the compound of Formula I caused thymolysis and liver glycogen deposition. The thymus weights at doses of 10 and 30 mg./kg. were 359±31 and 167±20 mg., respectively,in the medicated rats compared with 638±50 mg. in the control rats.

[5] = test system: hair growth on backs of male adrenalectomized Sprague-Dawley rats; experiment: Reduction in hair growth in male adrenalectomized rats, topical (Table VII); format: in vivo; conditions: 0.1% solution topical
Description: Hair was clipped from the backs of male Sprague-Dawley rats, having a mean body weight of 300 g., three weeks after adrenalectomy. The clipped area (4 cm.×4 cm.) was medicated with approximately 500 microliters of 0.1% solution of the compound of Formula I, or hydrocortisone or 500 microliters of ethanol alone for a two-week pretreatment period. The clipped area was then depilated and the medication with either solution or ethanol alone was continued for 4 weeks. The density of hair growth was scored visually at weekly intervals and at termination of the experiment on a scale of 0 to 4 (0, no hair growth; 4, complete hair regrowth). Skinfold thickness was also measured using a micrometer at the end of the experiment, which was conducted blind.

[6] = 2.5 mg/kg/day sc for 14 days with testosterone propionate 0.4 mg/kg/day
[7] = 5 mg/kg/day sc for 14 days with testosterone propionate 0.4 mg/kg/day
[8] = after depilation, median score, scale 0 to 4, n=12

CC#C[C@]1(O)CC[C@H]2[C@@H]3C[C@H](C)C4=Cc5[nH]ncc5C[C@]4(C)[C@H]3CC[C@@]21C [Compound of Formula I, 17β-Hydroxy-6α-methyl-17α-propynyl-4-androsteno[3,2-c]-pyrazole]
Final Body Weight [1, 6]: 99
Flank Organ Diameter [1, 6]: 4.0 mm
Flank Organ Wet Weight [1, 6]: 19.5 mg
Organ Weights: Adrenals [1, 6]: 12.7 mg
Organ Weights: Seminal Vesicles [1, 6]: 135 mg
Organ Weights: Thymus [1, 6]: 28 mg
Final Body Weight [1, 7]: 93
Flank Organ Diameter [1, 7]: 3.6 mm
Flank Organ Wet Weight [1, 7]: 15.0 mg
Organ Weights: Adrenals [1, 7]: 12.3 mg
Organ Weights: Seminal Vesicles [1, 7]: 107 mg
Organ Weights: Thymus [1, 7]: 14 mg
% Bound (Mean ± SE) of 3H-dihydrotestosterone ([2]; unlabelled antagonist 20 nM, molar ratio 10): 9.94 ± .45%
% Bound (Mean ± SE) of 3H-dihydrotestosterone ([2]; unlabelled antagonist 200 nM, molar ratio 100): 8.55 ± .56%
% Bound (Mean ± SE) of 3H-dihydrotestosterone ([2]; unlabelled antagonist 2000 nM, molar ratio 1000): 6.30 ± .003%
Average area of the supracaudal glands ([3]; 400 micrograms in 10 microliters ethanol topical, control 104±7, p<0.01): 72±6 sq. mm.
Changes in weights of seminal vesicles, adrenals or thymus glands ([3]; 400 micrograms topical, versus control group): No changes
Liver glycogen ([4]; 10 mg./kg. oral): 5.7±1.1
Thymus weights ([4]; 10 mg./kg. oral): 359 ± 31 mg
Liver glycogen ([4]; 30 mg./kg. oral): 10.9±1.2
Thymus weights ([4]; 30 mg./kg. oral): 167 ± 20 mg
Hair Growth Score, Treatment week 1 [5, 8]: 0
Hair Growth Score, Treatment week 2 [5, 8]: 0
Hair Growth Score, Treatment week 3 [5, 8]: .5
Hair Growth Score, Treatment week 4 [5, 8]: 1
Skinfold Thickness, Treatment week 4 ([5]; mean, n=12, vehicle 2.51): 1.82 mm
Hair Growth Score, Pretreatment week 1 ([5]; median score, scale 0 to 4 (0 no hair growth, 4 complete regrowth), n=12): 1
Hair Growth Score, Pretreatment week 2 ([5]; median score, scale 0 to 4, n=12): 2.5
Skin thickness compared with hydrocortisone-treated rats ([5]; p<0.02): thinner
